Starred links: 1 amine or outer side, 2 acyl side, 3 side chain; linkers in the order of their positions; H or OH if unused. Positions of bridges follow the written chain, without caps; N, C: chain ends. Residues, ends and D or L forms follow the SMILES beside them. *: point of attachment. 5FAM = O=C1OC2(c3ccc(O)cc3Oc3cc(O)ccc32)c2ccc(C(=O)*)cc21; CH2CH2CO = O=C(CC[*:1])[*:2]
Assays:
[1] = physiological conditions; cited from earlier work
[2] = target: HDAC8 (Homo sapiens, UniProt Q9BY41); experiment: biochemical
Sequence of HDAC8 (Q9BY41 whole entry): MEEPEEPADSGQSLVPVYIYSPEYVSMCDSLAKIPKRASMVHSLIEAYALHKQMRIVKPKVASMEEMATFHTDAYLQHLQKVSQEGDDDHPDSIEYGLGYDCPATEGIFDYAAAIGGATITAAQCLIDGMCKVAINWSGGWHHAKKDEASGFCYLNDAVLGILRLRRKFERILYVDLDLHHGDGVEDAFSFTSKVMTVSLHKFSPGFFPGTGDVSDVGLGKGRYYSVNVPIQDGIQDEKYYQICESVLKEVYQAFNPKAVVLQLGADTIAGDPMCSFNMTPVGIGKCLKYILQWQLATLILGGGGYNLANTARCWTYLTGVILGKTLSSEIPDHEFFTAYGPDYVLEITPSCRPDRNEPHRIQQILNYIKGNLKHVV
Experimental: Applicants incubated a 25 nM 5-FAM-conjugated cyclic peptide and different concentrations of a target protein (160 nM to 160 μM) in black 96-well plates in a 200 μL total volume that was adjusted by adding a PBS buffer. The fluorescence polarization was measured in a microplate reader at Ex/Em=490 nm/520 nm.

| SMILES | second-order rate constant of reaction with a thiol [1] [M⁻¹ s⁻¹] | Kd [2] [µM] |
| --- | --- | --- |
| C=CC(=O)NCCCC[C@H](N)C(=O)O [AcrK, N^ε-acryloyl-lysine] | 0.004 |  |
| CSCC[C@@H]1NC(=O)[C@H](Cc2c[nH]c3ccccc23)NC(=O)[C@H](CC(C)C)NC(=O)[C@H](CO)NC(=O)[C@H](CCC(N)=O)NC(=O)[C@@H](N)CSCCC(=O)NCCCC[C@@H](C(=O)N[C@@H](CCCCNC(=O)c2ccc3c(c2)C(=O)OC32c3ccc(O)cc3Oc3cc(O)ccc32)C(N)=O)NC(=O)[C@H](CC(N)=O)NC1=O [CycH8a, CQSLWMNX] (H-CQSLWMNKK(5FAM)-NH2; linker 1-8 via CH2CH2CO) |  | 7.1 |

From patent publication US12460317B2 (The Texas A&M University System, priority 2019, dated 2025)
